This passage reports cytotoxicity results from ChEMBL document CHEMBL3507680, “University of Dundee, Gates Library screen for HepG2 cell viability”.

The nature of this series: Human HepG2 cell viability assay in 384 well format. It is filed as toxicity, cell-based. More on the design: dose 125 nL, time 70.5 hour; concentration not given beside the values. Conditions: HepG2 cells, read-out: Inhibition.
As to `Cc1cc(N[C@H]2CCCC[C@@H]2O)n2nccc2n1`, the cytotoxicity at 70.5 h amounted to 5.62%.

`O=C(c1cn(CCN2CCCCC2)nn1)N1CCCO1`: the cytotoxicity at 70.5 h is -6.13%.

`CC(C)C1CN(c2cccc(C#N)n2)CCCN1Cc1ccc(F)cc1` (stereo not drawn): the cytotoxicity at 70.5 h is -15.7%.

As for `Cc1cccc(C)c1NC(=O)c1cccc(CN2CCCC2C)c1` (stereo not drawn), the cytotoxicity at 70.5 h was found to be 3.17%.

Regarding `COCCN(C)c1nc(-c2ccncc2)nc2c1CCN(C(C)=O)C2`, the cytotoxicity at 70.5 h was -7.41%.

`c1cnc(N2CCN(CCn3ccnc3-c3ccncc3)CC2)nc1`: the cytotoxicity at 70.5 h was determined as 12.5%.

`CO[C@H]1CNC[C@@H]1NC(=O)CCc1nc(-c2ccccc2)no1`: the cytotoxicity at 70.5 h was -0.167%.

As to `CC/C=C(\C)CN1CCC(CNC(=O)c2ccnc(N)c2)C1` (stereo not drawn), the cytotoxicity at 70.5 h worked out at 15%.

Regarding `CC(C)(C)c1cc(CN2C[C@H]3CC[C@@H]2CN(Cc2cscn2)C3)n[nH]1`, the cytotoxicity at 70.5 h amounted to 13.7%.

For the compound `CC(C)NC(=O)[C@@H]1C[C@H](N)CN1C(=O)C1(c2ccc(Cl)cc2)CCC1`, the cytotoxicity at 70.5 h was -9.78%.

With `Cc1nc(C(=O)N2CCN(c3ncccn3)[C@@H]3CS(=O)(=O)C[C@@H]32)cs1`, the cytotoxicity at 70.5 h is -7.79%.

As for `Cc1nnc(-c2cccc(N3CCC(NC(C)CC(C)C)CC3)c2)s1` (stereo not drawn), the cytotoxicity at 70.5 h is -4.36%.

For `COc1ccc(C(C(=O)O)N(C)CCN2CCCC2)c(C)c1` (stereo not drawn), the cytotoxicity at 70.5 h is 24%.

Consider `CCCc1nc(C(=O)NCc2cccnc2-n2cncn2)cs1`, for which the cytotoxicity at 70.5 h was 7.67%.

On to `O=C(C1CCOc2ccccc2C1)N1Cc2cnn(CCO)c2C1` (stereo not drawn), for which the cytotoxicity at 70.5 h is 9.23%.

Turning to `Cc1cc(CC(C)NC(=O)Cc2cc(F)ccc2C)[nH]n1` (stereo not drawn), the cytotoxicity at 70.5 h was found to be 3.68%.

Turning to `O=C(CCO)N1C[C@H]2CC[C@@H]1CN(C1Cc3ccccc3C1)C2`, the cytotoxicity at 70.5 h is -9.88%.

`O=C(Cc1ccc(O)c(F)c1)N1CCN(CC2CC2)[C@@H]2CS(=O)(=O)C[C@@H]21`: the cytotoxicity at 70.5 h was -6.03%.

Turning to `Cc1ccsc1C(CNC(=O)c1cc(=O)[nH]c(=O)[nH]1)N(C)C` (stereo not drawn), the cytotoxicity at 70.5 h stood at 17.7%.

Take `Cc1ccc(Sc2ccc(CN3CCC4(CC3)NCCNC4=O)o2)cc1`: the cytotoxicity at 70.5 h came out at 1.08%.

On to `CC(C)(C)CN1CCN(CC2CC2)C(CCO)C1` (stereo not drawn), for which the cytotoxicity at 70.5 h is -0.19%.

For the compound `Cc1cc(CN(C)C(=O)C2CC(=O)N(Cc3cccnc3)C2)on1` (stereo not drawn), the cytotoxicity at 70.5 h is -9.4%.

`O=C(O)[C@@H]1CN(Cc2cc3c(cc2Cl)OCO3)C[C@H]1C1CC1`: the cytotoxicity at 70.5 h was -1.73%.

Consider `c1cc2c(cc1C[C@@H]1CC[C@H](CN3CCCOCC3)O1)OCO2`, for which the cytotoxicity at 70.5 h is -5.03%.

Turning to `CN(C)C[C@@H]1CN(Cc2ccccc2C#N)C[C@@H]1CO`, the cytotoxicity at 70.5 h is 2.25%.

Regarding `COc1ccccc1OC1CN(C(=O)c2ccccc2C(C)=O)C1`, the cytotoxicity at 70.5 h is -19.5%.

For `NC(=O)c1cncc(-n2ccc(-c3cnccn3)n2)c1`, the cytotoxicity at 70.5 h was -8.7%.

For `CN1CC2(CCCN(Cc3ccccc3OCC(=O)O)C2)OC1=O` (stereo not drawn), the cytotoxicity at 70.5 h is -2.41%.

As for `CCN1CCN(Cc2nc(CCc3ccccc3)n[nH]2)CC1`, the cytotoxicity at 70.5 h came to 29.9%.

Consider `O=C([C@@H](O)Cc1ccccc1)N1CCCn2cncc2C1`, for which the cytotoxicity at 70.5 h is -7.92%.

For `CCN1CCCC(C)(C(=O)NCCCc2nc(C)cs2)C1` (stereo not drawn), the cytotoxicity at 70.5 h was -10.4%.

With `CCc1cc(N[C@H]2CCC[C@H]2CO)n2nc(C)c(C)c2n1`, the cytotoxicity at 70.5 h is -2.92%.

Turning to `CC(NC(=O)c1coc(COc2cccc(F)c2)n1)c1nnc(N)s1` (stereo not drawn), the cytotoxicity at 70.5 h was -10.7%.

With `Cc1noc(-c2ccnc(Oc3ccccc3CN3CCCCC3)c2)n1`, the cytotoxicity at 70.5 h was -1.96%.

Take `COc1cccc(-c2noc(-c3ccc(NCCCN)nc3)n2)c1OC`: the cytotoxicity at 70.5 h is 2.21%.

Consider `Cc1[nH]c2c(F)cccc2c1CC(=O)NC1CCCCNC1=O` (stereo not drawn), for which the cytotoxicity at 70.5 h is 24.9%.

In the case of `O=C(CSc1ccncc1)N1CCC2(CC1)c1ccccc1CC2O` (stereo not drawn), the cytotoxicity at 70.5 h was -5.15%.

As for `Cn1c(CN2CCCCC2)nnc1C1CCCN(C(=O)CCC(N)=O)C1` (stereo not drawn), the cytotoxicity at 70.5 h was -9%.
